ChEMBL document CHEMBL1201862, “PubChem BioAssay data set” (2004)
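A five-concentration, 48-hour dose response in 96-well plates underlies each endpoint, interpolated linearly between surrounding concentrations. GI50 is the concentration that inhibits growth by half.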 The source made the active and inactive calls. Rule as the data show it: active = GI50 up to about 1.1 µM and inactive = higher.

Columns and labels:
Assay in all cases: NCI tumour cell line growth inhibition, 48 h
RPMI-8226 = test system: RPMI-8226
HL-60 = test system: HL-60
SNB-19 = test system: SNB-19
UO-31 = test system: UO-31
NCI-H522 = test system: NCI-H522
M14 = test system: M14
LOX IMVI = test system: LOX IMVI
U-251 = test system: U-251
DU-145 = test system: DU-145
A549 = test system: A549
MOLT-4 = test system: MOLT-4
MDA-MB-435 = test system: MDA-MB-435
SF-539 = test system: SF-539
NCI-H23 = test system: NCI-H23
RXF 393 = test system: RXF 393
T47D = test system: T47D
COLO 205 = test system: COLO 205
EKVX = test system: EKVX
SK-MEL-2 = test system: SK-MEL-2
HOP-92 = test system: HOP-92
HCT-15 = test system: HCT-15
OVCAR-3 = test system: OVCAR-3
KM12 = test system: KM12
SK-OV-3 = test system: SK-OV-3
786-0 = test system: 786-0
Malme-3M = test system: Malme-3M
CAKI-1 = test system: CAKI-1
UACC-62 = test system: UACC-62
K562 = test system: K562
A498 = test system: A498
IGROV-1 = test system: IGROV-1
MDA-N = test system: MDA-N
SN12C = test system: SN12C
SK-MEL-28 = test system: SK-MEL-28
SF-295 = test system: SF-295
HOP-62 = test system: HOP-62
HCT-116 = test system: HCT-116
OVCAR-4 = test system: OVCAR-4
NCI-H226 = test system: NCI-H226
SK-MEL-5 = test system: SK-MEL-5
HT-29 = test system: HT-29
SNB-75 = test system: SNB-75
MCF7 = test system: MCF7
ACHN = test system: ACHN
NCI/ADR-RES = test system: NCI/ADR-RES
OVCAR-8 = test system: OVCAR-8
HCC 2998 = test system: HCC 2998
SW-620 = test system: SW-620
CCRF-CEM = test system: CCRF-CEM
UACC-257 = test system: UACC-257
MDA-MB-231 = test system: MDA-MB-231
PC-3 = test system: PC-3
TK-10 = test system: TK-10
Hs-578T = test system: Hs-578T
SF-268 = test system: SF-268
SR = test system: SR
NCI-H460 = test system: NCI-H460
OVCAR-5 = test system: OVCAR-5

For `O=C(NCCCl)Nc1cccnc1`, the GI50 (RPMI-8226) was 2.84 µM (inactive), the GI50 (HL-60) was 49.3 µM (inactive) and the GI50 (SNB-19) was 41.4 µM (inactive). The GI50 (UO-31) was 22.3 µM (inactive), the GI50 (NCI-H522) was 25.6 µM (inactive) and the GI50 (M14) was 17.6 µM (inactive). The GI50 (LOX IMVI) was 19.3 µM (inactive), the GI50 (U-251) was 16.7 µM (inactive) and the GI50 (DU-145) was 15.4 µM (inactive). The GI50 (A549) was 31.6 µM (inactive), the GI50 (MOLT-4) was 33 µM (inactive) and the GI50 (MDA-MB-435) was 24.5 µM (inactive). For the same compound, the GI50 (SF-539) was 31.3 µM (inactive), the GI50 (NCI-H23) was 17.5 µM (inactive) and the GI50 (RXF 393) was 0.951 µM (active). The GI50 (T47D) was 35.7 µM (inactive), the GI50 (COLO 205) was 24.7 µM (inactive) and the GI50 (EKVX) was 14.1 µM (inactive). The GI50 (SK-MEL-2) was 29 µM (inactive), the GI50 (HOP-92) was 19.9 µM (inactive) and the GI50 (HCT-15) was 22.3 µM. The GI50 (OVCAR-3) was 26.5 µM (inactive), the GI50 (KM12) was 13.8 µM (inactive) and the GI50 (SK-OV-3) was 20.6 µM (inactive). The GI50 (786-0) was 16.9 µM (inactive), the GI50 (Malme-3M) was 2.62 µM (inactive) and the GI50 (CAKI-1) was 21.5 µM (inactive). For the same compound, the GI50 (UACC-62) was 15.3 µM (inactive), the GI50 (K562) was 50 µM (inactive) and the GI50 (A498) was 24.7 µM (inactive). The GI50 (IGROV-1) was 13.6 µM (inactive), the GI50 (MDA-N) was 12.8 µM (inactive) and the GI50 (SN12C) was 21.5 µM (inactive). For the same compound, the GI50 (SK-MEL-28) was 21.2 µM (inactive), the GI50 (SF-295) was 30 µM (inactive) and the GI50 (HOP-62) was 34.4 µM (inactive). For the same compound, the GI50 (HCT-116) was 13.8 µM (inactive), the GI50 (OVCAR-4) was 43.1 µM (inactive) and the GI50 (NCI-H226) was 15.7 µM (inactive). For the same compound, the GI50 (SK-MEL-5) was 5.19 µM (inactive), the GI50 (HT-29) was 18.4 µM (inactive) and the GI50 (SNB-75) was 29.6 µM (inactive). For the same compound, the GI50 (MCF7) was 41.3 µM (inactive), the GI50 (ACHN) was 13.6 µM (inactive) and the GI50 (NCI/ADR-RES) was 21 µM (inactive). For the same compound, the GI50 (OVCAR-8) was 12.4 µM (inactive), the GI50 (HCC 2998) was 17.7 µM (inactive) and the GI50 (SW-620) was 50.7 µM (inactive). For the same compound, the GI50 (CCRF-CEM) was 33.7 µM (inactive), the GI50 (UACC-257) was 8 µM (inactive) and the GI50 (MDA-MB-231) was 17.4 µM (inactive). The GI50 (PC-3) was 31.4 µM (inactive) and the GI50 (TK-10) was 11.2 µM (inactive).
In the case of `CC12CCCCC1=[N+]([O-])C(C)(C)N2O` (stereo unspecified), the GI50 (Hs-578T) is reported as > 100 µM (inactive), the GI50 (RPMI-8226) is reported as > 100 µM (inactive) and the GI50 (SNB-19) is reported as > 100 µM (inactive). For the same compound, the GI50 (UO-31) was > 100 µM (inactive), the GI50 (SF-268) was > 100 µM (inactive) and the GI50 (M14) was > 100 µM (inactive). For the same compound, the GI50 (LOX IMVI) was > 100 µM (inactive), the GI50 (SR) was > 100 µM (inactive) and the GI50 (U-251) was > 100 µM (inactive). The GI50 (NCI-H460) was > 100 µM (inactive), the GI50 (DU-145) was > 100 µM (inactive) and the GI50 (A549) was > 100 µM (inactive). For the same compound, the GI50 (MDA-MB-435) was > 100 µM (inactive), the GI50 (SF-539) was > 100 µM (inactive) and the GI50 (NCI-H23) was > 100 µM (inactive). The GI50 (RXF 393) was > 100 µM (inactive), the GI50 (T47D) was > 100 µM (inactive) and the GI50 (COLO 205) was > 100 µM (inactive). For the same compound, the GI50 (EKVX) was > 100 µM (inactive), the GI50 (SK-MEL-2) was > 100 µM (inactive) and the GI50 (HOP-92) was > 100 µM (inactive). The GI50 (HCT-15) was greater than 100 µM, the GI50 (OVCAR-3) was > 100 µM (inactive) and the GI50 (KM12) was > 100 µM (inactive). The GI50 (SK-OV-3) was > 100 µM (inactive), the GI50 (786-0) was > 100 µM (inactive) and the GI50 (Malme-3M) was > 100 µM (inactive). The GI50 (CAKI-1) was > 100 µM (inactive), the GI50 (UACC-62) was > 100 µM (inactive) and the GI50 (K562) was > 10 µM (inactive). The GI50 (IGROV-1) was > 100 µM (inactive), the GI50 (MDA-N) was > 100 µM (inactive) and the GI50 (SN12C) was > 100 µM (inactive). The GI50 (SK-MEL-28) was > 100 µM (inactive), the GI50 (SF-295) was > 100 µM (inactive) and the GI50 (HOP-62) was > 100 µM (inactive). For the same compound, the GI50 (HCT-116) was > 100 µM (inactive), the GI50 (OVCAR-4) was > 100 µM (inactive) and the GI50 (NCI-H226) was > 100 µM (inactive). For the same compound, the GI50 (SK-MEL-5) was > 100 µM (inactive), the GI50 (HT-29) was > 100 µM (inactive) and the GI50 (OVCAR-5) was > 100 µM (inactive). For the same compound, the GI50 (MCF7) was > 100 µM (inactive), the GI50 (ACHN) was > 100 µM (inactive) and the GI50 (NCI/ADR-RES) was > 100 µM (inactive). For the same compound, the GI50 (OVCAR-8) was > 100 µM (inactive), the GI50 (HCC 2998) was > 100 µM (inactive) and the GI50 (SW-620) was > 100 µM (inactive). For the same compound, the GI50 (CCRF-CEM) was > 100 µM (inactive), the GI50 (UACC-257) was > 100 µM (inactive) and the GI50 (MDA-MB-231) was > 100 µM (inactive). The GI50 (PC-3) was > 100 µM (inactive) and the GI50 (TK-10) was > 100 µM (inactive).
